Data reported in patent publication US10227281B2, “Preparation of 2,6- and 2,7-disubstituted anthraquinone derivates” (BASF SE, priority 2014, dated 2019).
≈ marks a conversion by molar mass, not a printed value.

What was measured:
[1] = Determination of the solubility of anthraquinone derivatives in xylene/diisobutylcarbinol; settings: for Solubility in the solvent system used (in words): xylene/diisobutylcarbinol solvent system, comparison of the derivatives
[2] = Solubility of the anthrahydroquinone from the amount of absorbed hydrogen until precipitation; format: physicochemical; settings: hydroquinone form, equivolume mixture of xylene and diisobutylcarbinol, 30° C.
Protocol: 5 g of the anthraquinone derivative obtained from Example 4 were dissolved in an equivolume mixture of xylene and diisobutylcarbinol at 30° C. to obtain 100 ml of an anthraquinone solution. 2 g of a palladium catalyst on alumina was added to 50 ml of the anthraquinone solution and then the solution was made to absorb the theoretical amount of hydrogen at 30° C. The obtained solution has been left untouched for 15 h to thoroughly precipitate the excess of anthrahydroquinone. After the catalyst and the precipitate have been separated by filtration under a current of nitrogen, the resulting solution was stirred under air in order to oxidize the anthrahydroquinone back to the corresponding anthraquinone. The produced hydrogen peroxide was extracted with water. After the extraction of the hydrogen peroxide was completed, 25 mL of the working solution were further submitted to subsequent hydrogenation at 30° C. as described above until a state of saturation was reached.

[3] = mixture of xylene (50 volume-%) and diisobutylcarbinol (50 volume-%), 22° C., quinone form

Row | Solubility [1, 3] | Solubility in the solvent system used (in words) [1] | Solubility ([1]; xylene/diisobutylcarbinol mixture (50:50 by volume)) | Solubility of the anthrahydroquinone [2] | Molecule
1 | – | only poorly soluble | – | – | CCc1ccc2c(c1)C(=O)c1ccccc1C2=O [2-ethylanthraquinone]
2 | Insoluble | insoluble | – | – | Cc1cc2c(cc1C)C(=O)c1cc(C)c(C)cc1C2=O [Comparative Example 3, 2,3,6,7-tetramethylanthracene-9,10-dione]
3 | – | – | 770 mM (≈ 213 mg/mL) | – | CC(C)=CCc1ccc2c(c1)C(=O)c1ccccc1C2=O [Comparative Example 1, 2-(3-methylbut-2-en-1-yl)anthracene-9,10-dione]
4 | 1610 mM | highest solubility | – | 1010 mM | 2,6-diisohexylanthracene-9,10-dione and 2,7-diisohexylanthracene-9,10-dione [Example 4]

Row | Molecule | Solubility [1, 3] | Solubility in the solvent system used (in words) [1] | Solubility ([1]; xylene/diisobutylcarbinol mixture (50:50 by volume)) | Solubility of the anthrahydroquinone [2]
5 | 2,6-bis(4-methylpent-3-enyl)anthracene-9,10-dione and 2,7-bis(4-methylpent-3-enyl)anthracene-9,10-dione [Example 1] | 770 mM | – | – | –
